Columns and labels:
[1] = test system: participants with migraine (qualifying prodrome events); assay: Phase 3 crossover study: absence of aura at timepoints post dose; assay type: in vivo, human; conditions: 100 mg in prodrome, mITT
Experimental: (§1) A phase 3, multicenter, randomized, double-blind, placebo-controlled, crossover study was carried out to evaluate the efficacy, safety, and tolerability of oral ubrogepant in the acute treatment of migraine when administered during the prodrome. The study evaluated whether treatment during the initial phase of a migraine attack (i.e., the prodrome or premonitory phase) prior to the onset of headache, can attenuate the severity of the headache phase and reduce disability.
(§2) Eligible participants were randomized (1:1) to treatment sequences A or B in this crossover study. Participants randomized to Treatment Sequence A received placebo to treat their first qualifying prodrome event and ubrogepant 100 mg to treat their second qualifying prodrome event. For those randomized to Treatment Sequence B, they received the reverse: ubrogepant 100 mg to treat their first qualifying prodrome event and placebo to treat their second qualifying prodrome event.
N1 is the number of patients with non-missing aura presence assessment at timepoint.

[2] = test system: participants with migraine (qualifying prodrome events); assay: Phase 3 crossover study: safety and tolerability, adverse events (safety population); assay type: in vivo, human
Experimental: as §1, §2
Participant flow is illustrated in FIG. 2. The safety population included all treated participants who took at least one administration of study drug. The modified intent-to-treat (mITT) population included all randomized participants with at least one assessment of headache occurrence within 24 hours after taking double-blind study drug for at least one qualifying prodrome event. The most common reasons for failure to meet inclusion criteria were: lack of 3 to 16 recorded qualifying prodrome events during screening (144 of 317), failure to report headache of any intensity within 1 to 6 hours following at least 75% of qualifying prodrome events (123 of 317), and participant provided a negative response for the ability (by history) to identify migraine attacks in which prodromal symptoms were present and reliably (at least 75% of the time) followed by headache within 1 to 6 hours (23 of 317
Tables 20 and 21 provide an overall summary of adverse events during the double-blind treatment period for the safety population.
The most common TEAEs (≥2% in either treatment group) within 48 hours following administration of study intervention were nausea (placebo 15 of 462 [3.2%], ubrogepant 23 of 456 [5.0%]); dizziness (placebo 12 of 462 [2.6%], ubrogepant 11 of 456 [2.4%]), fatigue (placebo 7 of 462 [1.5%], ubrogepant 12 of 456 [2.6%]) and somnolence (placebo 5 of 462 [1.1%], ubrogepant 11 of 456 [2.4%]). Nausea (placebo 3.7%, ubrogepant 5.3%) was also the most common TEAE within 30 days following administration of study intervention.

[3] = 100 mg, within 48 hours following administration
[4] = 100 mg, within 48 hours following administration, safety population
[5] = ubrogepant 100 mg (N = 456), within 48 hours following administration, safety population
[6] = ubrogepant 100 mg (N = 456), within 30 days following administration, safety population

## C[C@@H]1[C@H](c2ccccc2)C[C@H](NC(=O)c2cnc3c(c2)C[C@@]2(C3)C(=O)Nc3ncccc32)C(=O)N1CC(F)(F)F [Ubrogepant, (3′S)—N-((3S,5S,6R)-6-methyl-2-oxo-5-phenyl-1-(2,2,2-trifluoroethyl)piperidin-3-yl)-2′-oxo-1′,2′,5,7-tetrahydrospiro[cyclopenta[b]pyridine-6,3′-pyrrolo[2,3-b]pyridine]-3-carboxamide]
[1]; 48 Hours post dose
  Absence of aura, Nonresponder (%): (2.6) %
  Absence of aura, OR vs placebo: 3.05
  Absence of aura, Responder (%): (97.4) %
[1]; 1 hour post dose
  Absence of aura, Nonresponder (%): (38.3) %
  Absence of aura, OR vs placebo: 0.99
  Absence of aura, Responder (%): (61.7) %
[1]; 2 hours post dose
  Absence of aura, Nonresponder (%): (28.1) %
  Absence of aura, OR vs placebo: 1.13
  Absence of aura, Responder (%): (71.9) %
[1]; 3 hours post dose
  Absence of aura, Nonresponder (%): (23.0) %
  Absence of aura, OR vs placebo: 0.96
  Absence of aura, Responder (%): (77.0) %
[1]; 4 hours post dose
  Absence of aura, Nonresponder (%): (19.1) %
  Absence of aura, OR vs placebo: 1.12
  Absence of aura, Responder (%): (80.9) %
[1]; 6 hours post dose
  Absence of aura, Nonresponder (%): (15.3) %
  Absence of aura, OR vs placebo: 1.05
  Absence of aura, Responder (%): (84.7) %
[1]; 8 hours post dose
  Absence of aura, Nonresponder (%): (10.5) %
  Absence of aura, OR vs placebo: 1.10
  Absence of aura, Responder (%): (89.5) %
[1]; 24 hours post dose
  Absence of aura, Nonresponder (%): (5.3) %
  Absence of aura, OR vs placebo: 1.48
  Absence of aura, Responder (%): (94.7) %
[2]; 100 mg in prodrome
  Safety results: generally consistent with the known safety profile of ubrogepant
  Tolerability: well-tolerated
  nausea, fatigue, dizziness, and somnolence, % of participants reporting: ≤ 5%
[2]; [3]
  TEAE dizziness, % of participants: 2.4%
  TEAE fatigue, % of participants: 2.6%
  TEAE nausea, % of participants: 5.0%
  TEAE somnolence, % of participants: 2.4%
[2]; [4]
  Adverse event leading to discontinuation (ADO), % of participants: (0.0) %
  Death, % of participants: (0.0) %
  Treatment-emergent Serious adverse events (TESAE), % of participants: (0.0) %
  Treatment-emergent adverse events (TEAE), % of participants: (16.9) %
  Treatment-related TEAEs, % of participants: (13.2) %
  Treatment-related TESAEs, % of participants: (0.0) %
[2]; 100 mg, within 30 days following administration
  TEAE nausea, % of participants: 5.3%
[2]; safety population
  Discontinuation during the DB treatment period due to adverse events: No participant was discontinued
[2]; [5]
  TEAE Dizziness, %: (2.4) %
  TEAE Fatigue, %: (2.6) %
  TEAE Nausea, %: (5.0) %
  TEAE Somnolence, %: (2.4) %
[2]; [6]
  Adverse event leading to discontinuation (ADO), %: (0.0) %
  Death, %: (0.0) %
  TEAE Dizziness, %: (2.4) %
  TEAE Fatigue, %: (2.6) %
  TEAE Nausea, %: (5.3) %
  TEAE Somnolence, %: (2.4) %
  Treatment-emergent Serious adverse events (TESAE), %: (0.0) %
  Treatment-emergent adverse events (TEAE), %: (19.7) %
  Treatment-related TEAEs, %: (13.2) %
  Treatment-related TESAEs, %: (0.0) %

Reference: US20260130901A1, “CGRP RECEPTOR ANTAGONIST FOR THE TREATMENT OF MIGRAINE” (ALLERGAN PHARMACEUTICALS INTERNATIONAL LIMITED, priority 2022, published 2026)
